Patent publication US20240165243A1, “EGFR DEGRADERS AND METHODS OF USE” (BeiGene Switzerland GmbH, priority 2021, published 2024)

Assays:
[1] = system: EGFR (Del19/T790M/C797S); experiment: Cell degradation HTRF assay, BaF3-DTC cells; format: cell-based; settings: 16 h treatment; for DC50: HTRF; for DTC Dmax (%): maximum percentage of degradation
Procedure: (§1) Cell Degradation of Example 1-28
(§2) BaF3-LTC (L858R/T790M/C797S) and BaF3-DTC (Del19/T790M/C797S) cells are treated with compounds diluted in 0.2% DMSO cell culture medium and incubate for 16 h, 37° C., 5% CO2. The final concentration of compounds in all assay is start with 10 uM, 4-fold dilution, total 8 doses were included.
(§3) After 16 h treatment, add HTRF lysis buffer to each well; seal the plate and incubate 1 hour at room temperature on a plate shaker; Once the cells are lysed, 16 μL of cell lysate are transferred to a PE 384-well HTRF detection plate; 4 μL of pre-mixed HTRF antibodies are added to each well; Cover the plate with a plate sealer, spin 1000 rpm for 1 min, Incubate overnight at room temperature; Read on BMG PheraStar with HTRF protocol (337 nm-665 nm-620 nm). The inhibition (degradation) percentage of the compound was calculated by the following equation:
(§4) Inhibition percentage of Compound=100−100×(Signal−low control)/(High control−low control), wherein signal=each test compound group.
(§5) High control=Cell group with added DMSO and without compound, indicating microplate readings without EGFR degradation;
(§6) Dmax is the maximum percentage of inhibition (degradation).
(§7) The IC50 (DC50) value of a compound can be obtained by fitting the following equation
(§8) Y=Bottom+(TOP−Bottom)/(1+((C50/X)^hillslope))
(§9) Wherein, X and Y are known values, and IC50, Hillslope, Top and Bottom are the parameters obtained by fitting with software. Y is the inhibition percentage (calculated from the equation), X is the concentration of the compound; IC50 is the concentration of the compound when the 50% inhibition is reached. The smaller the IC50 value is, the stronger the inhibitory ability of the compound is. Vice versa, the higher the IC50 value is, the weaker the ability the inhibitory ability of the compound is; Hillslope represents the slope of the fitted curve, generally around 1*; Bottom represents the minimum value of the curve obtained by data fitting, which is generally 000±20%; Top represents the maximum value of the curve obtained by data fitting, which is generally 100%±20%. The experimental data were fitted by calculating and analyzing with Dotmatics data analysis software. When Dmax<50%, DC50 will be automatically assigned as larger than […].

[2] = target: EGFR (L858R/T790M/C797S) (Homo sapiens, UniProt P00533, C797S/L858R/T790M); experiment: Cell degradation HTRF assay, BaF3-LTC cells; format: cell-based; set-up: expressed in transfected cells; host or cells: BaF3-LTC; settings: 16 h treatment; for DC50: HTRF; for Dmax: maximum percentage of degradation
EGFR (L858R/T790M/C797S), sequence (P00533 25-1210 T790M/C797S/L858R): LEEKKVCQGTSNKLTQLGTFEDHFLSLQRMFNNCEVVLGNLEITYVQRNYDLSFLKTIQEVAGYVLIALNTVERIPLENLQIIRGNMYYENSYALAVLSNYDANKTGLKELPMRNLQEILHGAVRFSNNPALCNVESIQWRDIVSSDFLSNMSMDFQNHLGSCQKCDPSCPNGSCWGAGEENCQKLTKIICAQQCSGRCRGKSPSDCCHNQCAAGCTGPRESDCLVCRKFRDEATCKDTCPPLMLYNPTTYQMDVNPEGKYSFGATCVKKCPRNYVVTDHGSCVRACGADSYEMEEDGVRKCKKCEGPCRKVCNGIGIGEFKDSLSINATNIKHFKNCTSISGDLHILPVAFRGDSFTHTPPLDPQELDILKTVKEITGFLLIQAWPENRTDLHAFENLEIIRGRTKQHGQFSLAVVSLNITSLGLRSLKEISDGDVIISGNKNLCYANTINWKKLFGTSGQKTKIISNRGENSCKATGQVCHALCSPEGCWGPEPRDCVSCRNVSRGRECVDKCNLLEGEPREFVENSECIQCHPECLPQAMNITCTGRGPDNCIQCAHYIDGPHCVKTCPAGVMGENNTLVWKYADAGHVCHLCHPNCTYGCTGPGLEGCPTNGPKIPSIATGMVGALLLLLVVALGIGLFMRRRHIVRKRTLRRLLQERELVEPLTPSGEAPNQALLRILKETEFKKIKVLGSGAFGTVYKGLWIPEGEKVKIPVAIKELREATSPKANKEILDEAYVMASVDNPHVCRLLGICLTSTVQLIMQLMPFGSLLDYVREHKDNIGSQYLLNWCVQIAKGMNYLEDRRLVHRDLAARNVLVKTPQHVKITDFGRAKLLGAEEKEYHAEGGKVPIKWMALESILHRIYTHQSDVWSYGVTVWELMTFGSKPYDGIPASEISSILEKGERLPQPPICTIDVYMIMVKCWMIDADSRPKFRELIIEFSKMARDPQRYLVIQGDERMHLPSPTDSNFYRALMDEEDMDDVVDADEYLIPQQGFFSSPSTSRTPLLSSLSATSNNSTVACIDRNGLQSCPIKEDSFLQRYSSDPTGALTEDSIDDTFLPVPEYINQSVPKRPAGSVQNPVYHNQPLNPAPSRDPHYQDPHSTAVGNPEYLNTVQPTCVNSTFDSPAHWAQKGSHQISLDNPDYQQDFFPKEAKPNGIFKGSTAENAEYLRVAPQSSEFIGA
Procedure: as §1, §2, §3, §4, §5, §6, §7, §8, §9

| Compound | DC50 [1] [nM] | DC50 [2] [nM] | Dmax [2] [%] | DTC Dmax (%) [1] [%] |
| --- | --- | --- | --- | --- |
| CCc1cc(Nc2ncc(Br)c(Nc3cnc4ccccc4c3P(C)(C)=O)n2)c(OC)cc1N1CCC(N2CCN(C[C@H]3CCN(c4ccc5c(c4)CN(C4CCC(=O)NC4=O)C5=O)C3)CC2)CC1 (stereo partly drawn) [Example 4, 3-(5-((R)-3-((4-(1-(4-((5-bromo-4-((4-(dimethylphosphoryl)quinolin-3-yl)amino)pyrimidin-2-yl)amino)-2-ethyl-5-methoxyphenyl)piperidin-4-yl)piperazin-1-yl)methyl)pyrrolidin-1-yl)-1-oxoisoindolin-2-yl)piperidine-2,6-dione] | 3.94 | 7.75 | 90.5 | 91.36 |
| CCc1cc(Nc2ncc(Br)c(Nc3cnc4cccnc4c3P(C)(C)=O)n2)c(OC)cc1N1CCC(N2CCN(CCc3cc(F)c(C4CCC(=O)NC4=O)c(F)c3)CC2)CC1 (stereo not drawn) [Example 7, 3-(4-(2-(4-(1-(4-((5-bromo-4-((4-(dimethylphosphoryl)-1,5-naphthyridin-3-yl)amino)pyrimidin-2-yl)amino)-2-ethyl-5-methoxyphenyl)piperidin-4-yl)piperazin-1-yl)ethyl)-2,6-difluorophenyl)piperidine-2,6-dione] | 15.5 | 45.3 | 82.7 | 93.86 |
| CCc1cc(Nc2ncc(Br)c(Nc3cnc4ccccc4c3P(C)(C)=O)n2)c(OC)cc1N1CCC(N2CCN(CCC3CCN(c4cc(F)c(C5CCC(=O)NC5=O)c(F)c4)CC3)CC2)CC1 (stereo not drawn) [Example 1, 3-(4-(4-(2-(4-(1-(4-((5-bromo-4-((4-(dimethylphosphoryl)quinolin-3-yl)amino)pyrimidin-2-yl)amino)-2-ethyl-5-methoxyphenyl)piperidin-4-yl)piperazin-1-yl)ethyl)piperidin-1-yl)-2,6-difluorophenyl)piperidine-2,6-dione] | 10.4 | 25 | 90.7 | 96.55 |
| CCc1cc(Nc2ncc(Br)c(Nc3cnc4cccnc4c3P(C)(C)=O)n2)c(OC)cc1N1CCC(N2CCN(CCC3CCN(c4cc(F)c(C5CCC(=O)NC5=O)c(F)c4)CC3)CC2)CC1 (stereo not drawn) [Example 9, 3-(4-(4-(2-(4-(1-(4-((5-bromo-4-((4-(dimethylphosphoryl)-1,5-naphthyridin-3-yl)amino)pyrimidin-2-yl)amino)-2-ethyl-5-methoxyphenyl)piperidin-4-yl)piperazin-1-yl)ethyl)piperidin-1-yl)-2,6-difluorophenyl)piperidine-2,6-dione] | 12.7 | 29.3 | 88 | 96.14 |
| CCc1cc(Nc2ncc(Br)c(Nc3cnc4c(C)cccc4c3P(C)(C)=O)n2)c(OC)cc1N1CCC(N2CCN(CCC3CCN(c4cc(F)c(C5CCC(=O)NC5=O)c(F)c4)CC3)CC2)CC1 (stereo not drawn) [Example 8, 3-(4-(4-(2-(4-(1-(4-((5-bromo-4-((4-(dimethylphosphoryl)-8-methylquinolin-3-yl)amino)pyrimidin-2-yl)amino)-2-ethyl-5-methoxyphenyl)piperidin-4-yl)piperazin-1-yl)ethyl)piperidin-1-yl)-2,6-difluorophenyl)piperidine-2,6-dione] | 11.8 | 30.2 | 89.6 | 96.88 |

The next lines start with results.

| DC50 [1] [nM] | DC50 [2] [nM] | Dmax [2] [%] | Compound | DTC Dmax (%) [1] [%] |
| --- | --- | --- | --- | --- |
| 4.65 | 19.5 | 89.5 | CCc1cc(Nc2ncc(Br)c(Nc3cnc4ccccc4c3P(C)(C)=O)n2)c(OC)cc1N1CCC(N2CCN(C(=O)C3CN(c4cc(F)c(C5CCC(=O)NC5=O)c(F)c4)C3)CC2)CC1 (stereo not drawn) [Example 20, 3-(4-(3-(4-(1-(4-((5-bromo-4-((4-(dimethylphosphoryl)quinolin-3-yl)amino)pyrimidin-2-yl)amino)-2-ethyl-5-methoxyphenyl)piperidin-4-yl)piperazine-1-carbonyl)azetidin-1-yl)-2,6-difluorophenyl)piperidine-2,6-dione] | 96.7 |
| 2.88 | 27.5 | 89.6 | CCc1cc(Nc2ncc(Br)c(Nc3cnc4ccccc4c3P(C)(C)=O)n2)c(OC)cc1N1CCC(N2CCN(CCc3ccc4c(c3)C3(CC3)C(=O)N4C3CCC(=O)NC3=O)CC2)CC1 (stereo not drawn) [Example 24, 3-(5′-(2-(4-(1-(4-((5-bromo-4-((4-(dimethylphosphoryl)quinolin-3-yl)amino)pyrimidin-2-yl)amino)-2-ethyl-5-methoxyphenyl)piperidin-4-yl)piperazin-1-yl)ethyl)-2′-oxospiro[cyclopropane-1,3′-indolin]-1′-yl)piperidine-2,6-dione] | 84.3 |
| 1.94 | 3.86 | 92.5 | CCc1cc(Nc2ncc(Br)c(Nc3cnc4ccccc4c3P(C)(C)=O)n2)c(OC)cc1N1CCC(N2CCN(C(=O)C3CCN(c4ccc5c(c4)C(C)(C)C(=O)N5C4CCC(=O)NC4=O)CC3)CC2)CC1 (stereo not drawn) [Example 17, 3-(5-(4-(4-(1-(4-((5-bromo-4-((4-(dimethylphosphoryl)quinolin-3-yl)amino)pyrimidin-2-yl)amino)-2-ethyl-5-methoxyphenyl)piperidin-4-yl)piperazine-1-carbonyl)piperidin-1-yl)-3,3-dimethyl-2-oxoindolin-1-yl)piperidine-2,6-dione] | 96.58 |
| 2.14 | 5.05 | 89.7 | CCc1cc(Nc2ncc(Br)c(Nc3cnc4ccccc4c3P(C)(C)=O)n2)c(OC)cc1N1CCC(N2CCN(C(=O)C3CN(c4ccc5c(c4)CN(C4CCC(=O)NC4=O)C5=O)C3)CC2)CC1 (stereo not drawn) [Example 16, 3-(5-(3-(4-(1-(4-((5-bromo-4-((4-(dimethylphosphoryl)quinolin-3-yl)amino)pyrimidin-2-yl)amino)-2-ethyl-5-methoxyphenyl)piperidin-4-yl)piperazine-1-carbonyl)azetidin-1-yl)-1-oxoisoindolin-2-yl)piperidine-2,6-dione] | 96.98 |
| 4.24 | 8.02 | 89.4 | CCc1cc(Nc2ncc(Br)c(Nc3cnc4ccccc4c3P(C)(C)=O)n2)c(OC)cc1N1CCC(N2CCN(CC3CN(c4cc(F)c(C5CCC(=O)NC5=O)c(F)c4)C3)CC2)CC1 (stereo not drawn) [Example 19, 3-(4-(3-((4-(1-(4-((5-bromo-4-((4-(dimethylphosphoryl)quinolin-3-yl)amino)pyrimidin-2-yl)amino)-2-ethyl-5-methoxyphenyl)piperidin-4-yl)piperazin-1-yl)methyl)azetidin-1-yl)-2,6-difluorophenyl)piperidine-2,6-dione] | 97.44 |
| 3.95 | 14.6 | 90.7 | CCc1cc(Nc2ncc(Br)c(Nc3cnc4ccccc4c3P(C)(C)=O)n2)c(OC)cc1N1CCC(N2CCN(C(=O)[C@H]3C[C@H](N(C)c4cc(F)c(C5CCC(=O)NC5=O)c(F)c4)C3)CC2)CC1 (stereo partly drawn) [Example 18, 3-(4-(((1r,3r)-3-(4-(1-(4-((5-bromo-4-((4-(dimethylphosphoryl)quinolin-3-yl)amino)pyrimidin-2-yl)amino)-2-ethyl-5-methoxyphenyl)piperidin-4-yl)piperazine-1-carbonyl)cyclobutyl)(methyl)amino)-2,6-difluorophenyl)piperidine-2,6-dione] | 97.59 |
| 186 | 546 | 84.6 | CCc1cc(Nc2ncc(Br)c(Nc3cnc4ccccc4c3P(C)(C)=O)n2)c(OC)cc1N1CCC(N2CCN(CCc3cccc4nn(C5CCC(=O)NC5=O)cc34)CC2)CC1 (stereo not drawn) [Example 14, 3-(4-(2-(4-(1-(4-((5-bromo-4-((4-(dimethylphosphoryl)quinolin-3-yl)amino)pyrimidin-2-yl)amino)-2-ethyl-5-methoxyphenyl)piperidin-4-yl)piperazin-1-yl)ethyl)-2H-indazol-2-yl)piperidine-2,6-dione] | 81.73 |
